The values below come from US20210002209A1, “NOVEL CRYSTALLINE FORMS OF TAMIBAROTENE FOR TREATMENT OF CANCER” (TRANSGENEX NANOBIOTECH, INC., priority 2018, published 2021).

Values after ≈ are worked out from the molar mass of the structure shown. Read-outs that look alike come from different tables or passages of the source.

One series deals with A549. As to the kind of experiment: IC50 studies, monolayer cell culture assay (CellTiter-Glo cell viability, 72 hours). As to conditions: A549, lung. The class given is cell-based. On the procedure: (§1) Cancer cell lines listed in Table 1, were subjected for testing anti-cancer potency or the half maximal inhibitory concentration (IC50) of tamibarotene molecular complexes.
(§2) The SK-ES-1, U-2 OS, and SAOS-2 cells were cultured in a growth medium that is ATCC-formulated McCoy's 5a Medium Modified, Catalog No. 30-2007. The PC-3, PANC-1, SK-Mel-5, A549, H460, and H1299 were cultured in a growth medium that is ATCC-formulated Dulbecco's Modified Eagle's Medium (DMEM), Catalog No. 30-2002. The cells were seeded on 96-well microtiter plates with 3500 cells per well and cultured in an incubator (Model 3120, Thermo Scientific, USA) with a constant temperature at 37° C. and 5% carbon dioxide (CO2) gas for 24 hours.
(§3) The new tamibarotene molecular complexes were made into a series with concentration of 200 nM to 40 nM, 8 nM, 1.6 nM, 0.32 nM, and 0.064 nM. […]
(§4) The treated cells in the 96 well plate was then further cultured at the same conditions for 72 hours and then subjected for a final cell viability measurement. The measurement used a homogeneous method to determine the number of metabolically active cells presented in each of treatments. A testing reagent for the measurement is a mixture solution of the CellTiter-Glo® 2.0 reagent (CTG, Promega Cat #G9243, USA) and growth medium in 1:1 ratio in this respect.
(§5) The 96-well plate with the new molecular complex treated cells was taken out from incubator after the 72 hours of incubation, and the treatment solution in each well was removed using a multichannel pipette, and 100 μl of the testing reagent were added into each well. The plate was then placed on a plate shaker for 15 min. The plate was covered with a piece of aluminum foil to protect the CTG luminescence during the shaking time.
(§6) Then 90 μl of the 100 μl testing reagent were transferred into an opaque-walled 96-well plate for the CTG luminescence reading on a plate reader (SynergyH4 Hybrid Reader, Biotek, USA). The luminescence intensity of each treatment was positively correlated with the number of cells survived during the treatments.
(§7) All the treatment data was normalized by comparing with the control samples that had only growth medium without any molecular complexes. The half maximal inhibitory concentration (IC50) data was calculated using the nonlinear regression model and dose-responses (inhibition) curve built in the software. Each of treatments was performed in three replications each time and repeated three times for validation. The IC50 average […] (Avg) and standard deviation (STDV) were calculated based on the three replications.

For the next series, the system named is H1299. Described as above. The class given is cell-based. On the procedure:
as §1, §2, §3, §4, §5, §6, §7

The next series concerns H460. The series is described as above. The class given is cell-based. How it is done:
as §1, §2, §3, §4, §5, §6, §7

The subject of another series is PC-3. The series is described as above. In kind it is cell-based. As to conditions: Homo sapiens, PC-3, prostate. How it is done:
as §1, §2, §3, §4, §5, §6, §7

Another series relates to SAOS. The description is as above. In kind it is cell-based. The following applies: sarcoma. On the procedure:
as §1, §2, §3, §4, §5, §6, §7

The test system of the next series is SK-ES-1. Described as above. The class given is cell-based. As to conditions: Homo sapiens, SK-ES1, SK-ES-1, sarcoma. On the procedure: as §1, §2, §3, §4, §5, §6, §7
The next series deals with SK-Mel-5. The series is described as above. In kind it is cell-based. The following applies: Homo sapiens, SK-Mel-5, skin. On the procedure:
as §1, §2, §3, §4, §5, §6, §7

Another series deals with U-2 OS. Described as above. In kind it is cell-based. The following applies: Homo sapiens, U2OS, sarcoma. On the procedure: as §1, §2, §3, §4, §5, §6, §7
For series [1] the following is noted: cited from earlier work.
[2] abbreviates: Test I, read-out: IC50 Test(I) Avg.
[3] abbreviates: Test II, read-out: IC50 Test (II) Avg.
Setting [4] is: Test III, read-out: IC50 Test (III) Avg.
The mark [5] stands for this setting: H1299, lung, Test I, read-out: IC50 Test(I) Avg.
Setting [6] is: H1299, lung, Test II, read-out: IC50 Test (II) Avg.
The mark [7] stands for this setting: H1299, lung, Test III, read-out: IC50 Test (III) Avg.
[8] abbreviates: H460, lung, Test I, read-out: IC50 Test(I) Avg.
The mark [9] stands for this setting: H460, lung, Test II, read-out: IC50 Test (II) Avg.
The mark [10] stands for this setting: H460, lung, Test III, read-out: IC50 Test (III) Avg.

As a reminder, the IC50 is the concentration at which inhibition is half-maximal. Consider `CC1(C)CCC(C)(C)c2cc(NC(=O)c3ccc(C(=O)O)cc3)ccc21` [TAM, 4-[(5,5,8,8-tetramethyl-5,6,7,8-tetrahydronaphthalen-2-yl)carbamoyl]benzoic acid, reference compound], for which the 50% inhibitory concentration (IC50) with A549 (Homo sapiens, Test I, read-out: IC50 Test(I) Avg) turned out to be 59.9 µM; in the series with A549 (Homo sapiens, Test II, read-out: IC50 Test (II) Avg) it was 60.6 µM; in the series on A549 (Homo sapiens, Test III, read-out: IC50 Test (III) Avg) it was 57.8 µM; with H1299 (Homo sapiens, NCI-H1299, H1299, lung, Test I, read-out: IC50 Test(I) Avg), 78.9 µM; with H1299 (Homo sapiens, NCI-H1299, H1299, lung, Test II, read-out: IC50 Test (II) Avg), 67.3 µM; in the series on H1299 (Homo sapiens, NCI-H1299, H1299, lung, Test III, read-out: IC50 Test (III) Avg) it was 83 µM. For the same compound, the IC50 in the series with H460 (Homo sapiens, NCI-H460, H460, lung, Test I, read-out: IC50 Test(I) Avg) was 69.3 µM; with H460 (Homo sapiens, NCI-H460, H460, lung, Test II, read-out: IC50 Test (II) Avg), 58.3 µM; in the series on H460 (Homo sapiens, NCI-H460, H460, lung, Test III, read-out: IC50 Test (III) Avg), 67.1 µM; in the series on PC-3 (setting [2]), over 100 µM; in the series on PC-3 (setting [3]), over 100 µM; in the series with PC-3 (setting [4]) it was over 100 µM. The IC50 is 55.4 µM in the series with SAOS (setting [2]); 46.5 µM with SAOS (setting [3]); over 100 µM in the series with SAOS (setting [4]); over 100 µM with SK-ES-1 (setting [2]); 73.2 µM with SK-ES-1 (setting [3]); 72.5 µM in the series with SK-ES-1 (setting [4]). Also, the IC50 is over 100 µM in the series with SK-Mel-5 (setting [2]); over 100 µM with SK-Mel-5 (setting [3]); over 100 µM in the series on SK-Mel-5 (setting [4]); over 100 µM with U-2 OS (setting [2]); 77.7 µM in the series on U-2 OS (setting [3]); 69.7 µM in the series on U-2 OS (setting [4]). Moreover, the “solubility in DMF, methanol, ethanol, DMSO, and other organic solvents” value in [1] is on record as “soluble”. Moreover, the “solubility in acetonitrile, water, and various other buffer solutions” value in [1] (pH 3~7, from CN101200435 (B)) was “insoluble”. Further, the water solubility in series [1] (water, drug bank) is 575 ng/mL (≈ 1.64 µM).
Consider `CC1(C)CCC(C)(C)c2cc(NC(=O)c3ccc(C(=O)O)cc3)ccc21.O=C(O)c1ccc(-c2ccccc2)cc1` [TAM-biphenyl-4-carboxylic acid], for which the IC50 with A549 (setting [2]) is 49.3 µM; in the series on A549 (setting [3]) it was 41.3 µM; in the series with A549 (setting [4]) it was 46.3 µM; in the series with H1299 (setting [5]), 65.5 µM; with H1299 (setting [6]), 59.8 µM; in the series with H1299 (setting [7]), 65.3 µM. Besides, the IC50 was 56 µM with H460 (setting [8]); 51.7 µM in the series on H460 (setting [9]); 55.2 µM in the series with H460 (setting [10]); 43.5 µM in the series with SAOS (setting [2]); 37.1 µM in the series with SAOS (setting [3]); over 100 µM in the series on SAOS (setting [4]).
Consider `CC1(C)CCC(C)(C)c2cc(NC(=O)c3ccc(C(=O)O)cc3)ccc21.O=C(O)c1ccccc1-c1ccccc1C(=O)O` [TAM-diphenic acid], for which the IC50 with A549 (setting [2]) stood at 21.7 µM; in the series on A549 (setting [3]), 38.9 µM; in the series on A549 (setting [4]), 26.6 µM; in the series with H1299 (setting [5]) it was 40.8 µM; in the series with H1299 (setting [6]), 41.4 µM; in the series with H1299 (setting [7]), 39.9 µM. Besides, the IC50 with H460 (setting [8]) stood at 35 µM; with H460 (setting [9]) it was 34.7 µM; with H460 (setting [10]) it was 32.3 µM.
For `CC1(C)CCC(C)(C)c2cc(NC(=O)c3ccc(C(=O)O)cc3)ccc21.NC(=O)c1cccnc1` [TAM-nicotinamide], the IC50 in the series with A549 (setting [2]) was 56.6 µM; with A549 (setting [3]) it was 59.1 µM; in the series on A549 (setting [4]), 49.8 µM; in the series on H1299 (setting [5]) it was 49.7 µM; in the series with H1299 (setting [6]), 55.9 µM; with H1299 (setting [7]) it was 53.9 µM. Moreover, the figures for the IC50 in the series with H460 (setting [8]), with H460 (setting [9]) and in the series on H460 (setting [10]) were 56.6 µM, 51.1 µM and 50.3 µM, respectively.
